Data published in US20250059188A1, “ARYLSULPHONAMIDE COMPOUNDS” (Anaxis Pharma Pty Ltd, priority 2021, published 2025).

Each compound was assayed on U937 human histiocytic leukemia cell line (assay: Inhibition of TSQ induced necroptosis in U937 cells (CellTitre-Glo)). Details: Homo sapiens, U-937, TSQ cocktail (TNF, Smac mimetic, Q-VD-OPh), 48 hours, read-out: Inhibition of TSQ-induced necroptosis (IC50 cell-based assay).
In short: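 Necroptosis was induced with TNF-Fc (100 ng/ml), Smac mimetic (500 nM) and Q-VD-OPh (10 μM) in 20000 U937 cells/well exposed to a 10-point, 3-fold compound series (top 36 μM, 0.3% DMSO). ATP luminescence read after 48 h; 4-parameter fit gave IC50. Parallel TSQ-free wells assessed compound toxicity.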

`C[C@H](Oc1cc(-c2nn(C)c3c(-c4cnn(C5CC6(C5)CN(C)C6)c4)cnc(N)c23)ccc1NS(=O)(=O)C(F)F)c1ccc(F)cc1` [Compound 99, (S)-N-(4-(4-amino-1-methyl-7-(1-(2-methyl-2-azaspiro[3.3]heptan-6-yl)-1H-pyrazol-4-yl)-1H-pyrazolo[4,3-c]pyridin-3-yl)-2-(1-(4-fluorophenyl)ethoxy)phenyl)-1,1-difluoromethanesulfonamide] and `C[C@H](Oc1cc(-c2nn(C)c3c(-c4cnn(C5CCN(C)CC5)c4)cnc(N)c23)ccc1NS(=O)(=O)C(F)F)c1ccc(F)cc1` [Compound 46, (S)-N-(4-(4-amino-1-methyl-7-(1-(1-methylpiperidin-4-yl)-1H-pyrazol-4-yl)-1H-pyrazolo[4,3-c]pyridin-3-yl)-2-(1-(4-fluorophenyl)ethoxy)phenyl)-1,1-difluoromethanesulfonamide] fall in the same range of IC50: 10 to 1000 nM for the first, 10 to 1000 nM for the second.

`C[C@H](Oc1cc(-c2nn(C)c3c(-c4cnn(C5CCN(C)C6(CC6)C5)c4)cnc(N)c23)ccc1NS(=O)(=O)C(F)F)c1ccc(F)cc1` (stereo partly drawn) [Compound 145, N-(4-(4-amino-1-methyl-7-(1-(4-methyl-4-azaspiro[2.5]octan-7-yl)-1H-pyrazol-4-yl)-1H-pyrazolo[4,3-c]pyridin-3-yl)-2-((S)-1-(4-fluorophenyl)ethoxy)phenyl)-1,1-difluoromethanesulfonamide] and `C[C@H](Oc1cc(-c2nn(C)c3c(-c4cnn(C5CCN(C)C(C)(C)C5)c4)cnc(N)c23)ccc1NS(=O)(=O)C(F)F)c1ccc(F)cc1` (single isomer, unassigned) [Compound 154, N-(4-(4-amino-1-methyl-7-(1-((R*)-1,2,2-trimethylpiperidin-4-yl)-1H-pyrazol-4-yl)-1H-pyrazolo[4,3-c]pyridin-3-yl)-2-((S)-1-(4-fluorophenyl)ethoxy)phenyl)-1,1-difluoromethanesulfonamide] cannot be ordered by IC50: less than 10 nM for the first, less than 10 nM for the second.

`C[C@H](Oc1cc(-c2nn(C)c3c(-c4cnn(C5CCOCC5)c4)cnc(N)c23)ccc1NS(=O)(=O)C(F)F)c1cccc(Cl)c1` [Compound 122, (S)-N-(4-(4-amino-1-methyl-7-(1-(tetrahydro-2H-pyran-4-yl)-1H-pyrazol-4-yl)-1H-pyrazolo[4,3-c]pyridin-3-yl)-2-(1-(3-chlorophenyl)ethoxy)phenyl)-1,1-difluoromethanesulfonamide] and `C[C@@H](Oc1cc(-c2nn(C)c3c(-c4cnn(C5CCOCC5)c4)cnc(N)c23)ccc1NS(=O)(=O)C(F)F)c1ccc(F)cc1` [Compound 121, (R)-N-(4-(4-amino-1-methyl-7-(1-(tetrahydro-2H-pyran-4-yl)-1H-pyrazol-4-yl)-1H-pyrazolo[4,3-c]pyridin-3-yl)-2-(1-(4-fluorophenyl)ethoxy)phenyl)-1,1-difluoromethanesulfonamide] fall in the same range of IC50: 10 to 1000 nM for the first, 10 to 1000 nM for the second.

`C[C@H](Oc1cc(-c2nn(C)c3c(-c4cnn(C5CC(C)(C)N(C)C(C)(C)C5)c4)cnc(N)c23)ccc1NS(=O)(=O)C(F)F)c1ccc(F)cc1` [Compound 162, (S)-N-(4-(4-amino-1-methyl-7-(1-(1,2,2,6,6-pentamethylpiperidin-4-yl)-1H-pyrazol-4-yl)-1H-pyrazolo[4,3-c]pyridin-3-yl)-2-(1-(4-fluorophenyl)ethoxy)phenyl)-1,1-difluoromethanesulfonamide] and `C[C@H](Oc1cc(-c2nn(C)c3c(-c4cnn(C5CCN(C)C(C)(C)C5)c4)cnc(N)c23)ccc1NS(=O)(=O)C(F)F)c1ccc(F)cc1` (single isomer, unassigned) [Compound 113] cannot be ordered by IC50: less than 10 nM for the first, less than 10 nM for the second.

`C[C@H](Oc1cc(-c2nn(C)c3c(-c4cnn(C5CCC(C)(C)N(C)C5)c4)cnc(N)c23)ccc1NS(=O)(=O)C(F)F)c1ccc(F)cc1` (stereo partly shown) [Compound 104, N-(4-{4-amino-1-methyl-7-[1-(1,6,6-trimethylpiperidin-3-yl)-1H-pyrazol-4-yl]-1H-pyrazolo[4,3-c]pyridin-3-yl}-2-[(1 S)-1-(4-fluorophenyl)ethoxy]phenyl)-1,1-difluoromethanesulfonamide] and `C[C@H](Oc1cc(-c2nn(C)c3c(-c4cnn(C5CCC(F)(F)C5)c4)cnc(N)c23)ccc1NS(=O)(=O)C(F)F)c1ccc(F)cc1` (stereo partly drawn) [Compound 120, N-(4-{4-amino-7-[1-(3,3-difluorocyclopentyl)-1H-pyrazol-4-yl]-1-methyl-1H-pyrazolo[4,3-c]pyridin-3-yl}-2-[(1S)-1-(4-fluorophenyl)ethoxy]phenyl)-1,1-difluoromethanesulfonamide] cannot be ordered by IC50: less than 10 nM for the first, less than 10 nM for the second.

`C[C@H](Oc1cc(-c2nn(C)c3c(-c4cnn(C5CCC(F)(F)CC5)c4)cnc(N)c23)ccc1NS(=O)(=O)C(F)F)c1ccc(F)cc1` [Compound 146, (S)-N-(4-(4-amino-7-(1-(4,4-difluorocyclohexyl)-1H-pyrazol-4-yl)-1-methyl-1H-pyrazolo[4,3-c]pyridin-3-yl)-2-(1-(4-fluorophenyl)ethoxy)phenyl)-1,1-difluoromethanesulfonamide] and `C[C@H](Oc1cc(-c2nn(C)c3c(-c4cnn(C5CCCC5)c4)cnc(N)c23)ccc1NS(=O)(=O)C(F)F)c1ccc(F)cc1` [Compound 30, (S)-N-(4-(4-amino-7-(1-cyclopentyl-1H-pyrazol-4-yl)-1-methyl-1H-pyrazolo[4,3-c]pyridin-3-yl)-2-(1-(4-fluorophenyl)ethoxy)phenyl)-1,1-difluoromethanesulfonamide] cannot be ordered by IC50: less than 10 nM for the first, less than 10 nM for the second.

`CC(=O)N1CCC(n2cc(-c3cnc(N)c4c(-c5ccc(NS(=O)(=O)C(F)F)c(O[C@@H](C)c6ccc(F)cc6)c5)nn(C)c34)cn2)CC1` [Compound 109, (S)—N-(4-(7-(1-(1-acetylpiperidin-4-yl)-1H-pyrazol-4-yl)-4-amino-1-methyl-1H-pyrazolo[4,3-c]pyridin-3-yl)-2-(1-(4-fluorophenyl)ethoxy)phenyl)-1,1-difluoromethanesulfonamide] and `[2H]C([2H])([2H])N1CCC(n2cc(-c3cnc(N)c4c(-c5ccc(NS(=O)(=O)C(F)F)c(O[C@@H](C)c6ccc(F)cc6)c5)nn(C)c34)cn2)CC1` [Compound 103] cannot be ordered by IC50: less than 10 nM for the first, less than 10 nM for the second.

`CC(n1cc(-c2cnc(N)c3c(-c4ccc(NS(=O)(=O)C(F)F)c(O[C@@H](C)c5ccc(F)cc5)c4)nn(C)c23)cn1)C(F)(F)F` (stereo partly drawn) [Compound 142, N-(4-(4-amino-1-methyl-7-(1-(1,1,1-trifluoropropan-2-yl)-1H-pyrazol-4-yl)-1H-pyrazolo[4,3-c]pyridin-3-yl)-2-((S)-1-(4-fluorophenyl)ethoxy)phenyl)-1,1-difluoromethanesulfonamide] and `C[C@H](Oc1cc(-c2nn(C)c3c(-c4cnn(CCC(F)(F)F)c4)cnc(N)c23)ccc1NS(=O)(=O)C(F)F)c1ccc(F)cc1` [Compound 131, (S)-N-(4-(4-amino-1-methyl-7-(1-(3,3,3-trifluoropropyl)-1H-pyrazol-4-yl)-1H-pyrazolo[4,3-c]pyridin-3-yl)-2-(1-(4-fluorophenyl)ethoxy)phenyl)-1,1-difluoromethanesulfonamide] fall in the same range of IC50: 10 to 1000 nM for the first, 10 to 1000 nM for the second.

`C[C@H](Oc1cc(-c2nn(C)c3c(-c4cnn(C(C)(C)CO)c4)cnc(N)c23)ccc1NS(=O)(=O)C(F)F)c1ccc(F)cc1` [Compound 97, (S)-N-(4-(4-amino-7-(1-(1-hydroxy-2-methylpropan-2-yl)-1H-pyrazol-4-yl)-1-methyl-1H-pyrazolo[4,3-c]pyridin-3-yl)-2-(1-(4-fluorophenyl)ethoxy)phenyl)-1,1-difluoromethanesulfonamide] and `CC1CN(C)CC(C)C1n1cc(-c2cnc(N)c3c(-c4ccc(NS(=O)(=O)C(F)F)c(O[C@@H](C)c5ccc(F)cc5)c4)nn(C)c23)cn1` (stereo partly drawn) [Compound 172, N-(4-{4-amino-1-methyl-7-[1-(1,3,5-trimethylpiperidin-4-yl)-1H-pyrazol-4-yl]-1H-pyrazolo[4,3-c]pyridin-3-yl}-2-[(1S)-1-(4-fluorophenyl)ethoxy]phenyl)-1,1-difluoromethanesulfonamide] fall in the same range of IC50: 10 to 1000 nM for the first, 10 to 1000 nM for the second.

First: Cc1c(-c2cnc(N)c3c(-c4ccc(NS(=O)(=O)C(F)F)c(O[C@@H](C)c5ccc(F)cc5)c4)nn(C)c23)cnn1C1CCN(C)C(C)(C)C1 (stereo partly drawn) [Compound 157, N-(4-(4-amino-1-methyl-7-(5-methyl-1-(1,2,2-trimethylpiperidin-4-yl)-1H-pyrazol-4-yl)-1H-pyrazolo[4,3-c]pyridin-3-yl)-2-((S)-1-(4-fluorophenyl)ethoxy)phenyl)-1,1-difluoromethanesulfonamide]
Second: C[C@H](Oc1cc(-c2nn(C)c3c(-c4cnn(C5C[C@@H]6CN(C)C[C@@H]6C5)c4)cnc(N)c23)ccc1NS(=O)(=O)C(F)F)c1ccc(F)cc1 (stereo partly drawn) [Compound 164, N-(4-(4-amino-1-methyl-7-(1-((3aR,6aS)-2-methyloctahydrocyclopenta[c]pyrrol-5-yl)-1H-pyrazol-4-yl)-1H-pyrazolo[4,3-c]pyridin-3-yl)-2-((S)-1-(4-fluorophenyl)ethoxy)phenyl)-1,1-difluoromethanesulfonamide]
The IC50 of the first is higher: 10 to 1000 nM for the first, less than 10 nM for the second.

`C[C@H](Oc1cc(-c2nn(C)c3c(-c4cnn(C5C[C@H]6CNC[C@H]6C5)c4)cnc(N)c23)ccc1NS(=O)(=O)C(F)F)c1ccc(F)cc1` (stereo partly drawn) [Compound 163, N-(4-(4-amino-1-methyl-7-(1-((3aR,6aS)-octahydrocyclopenta[c]pyrrol-5-yl)-1H-pyrazol-4-yl)-1H-pyrazolo[4,3-c]pyridin-3-yl)-2-((S)-1-(4-fluorophenyl)ethoxy)phenyl)-1,1-difluoromethanesulfonamide] and `Cn1nc(-c2ccc(NS(=O)(=O)C(F)F)c(OCc3ccc(Cl)c(F)c3)c2)c2c(N)ncc(-c3cnn(C4CCOCC4)c3)c21` [Compound 132, N-(4-(4-amino-1-methyl-7-(1-(tetrahydro-2H-pyran-4-yl)-1H-pyrazol-4-yl)-1H-pyrazolo[4,3-c]pyridin-3-yl)-2-((4-chloro-3-fluorobenzyl)oxy)phenyl)-1,1-difluoromethanesulfonamide] fall in the same range of IC50: 10 to 1000 nM for the first, 10 to 1000 nM for the second.
